# System: anti-CD3/CD28-induced phosphorylation of IKKα/β
# Test: Phosphorylation of IKKα/β in Jurkat T cells (Western blot)
# Assay type: cell-based
# Conditions: 20 hours pretreatment, anti-CD3/CD28 for 0-20 minutes
# Protocol: The DLBCL cell lines, OCI-Ly1, OCI-Ly3, and OCI-Ly7, were provided by Dr. Mark Minden (University Health Network, Toronto, Ontario, Canada). TMD8 cells were provided by Dr. Louis Staudt (NCI, NIH). OCI-Ly1 and OCI-Ly7 cells were cultured in Iscove's Modified Dulbecco's Medium (IMDM) supplemented with 10% FBS. OCI-Ly3 cells were cultured in IMDM supplemented with 20% FBS. TMD8 and Jurkat T cells were cultured in RPMI1640 medium with 10% FBS. HEK293T cells were cultured in DMEM medium with 10% FBS. All media were supplemented with 100 U/ml penicillin streptomycin. Stimulation of Jurkat cells was conducted by adding 5 ng/ml of phorbol 12-myristatel3 acetate (PMA)(Sigma-Aldrich) and 1μM ionomycin (Calbiochem), or by adding 5-10 μL/mL of ImmunoCult Human CD3/CD28 ([…] Technologies).
smiles,measurement,value
COc1ccc(CNS(=O)(=O)c2ccc(Cc3ccc(S(=O)(=O)NCc4ccc(OC)cc4)cc3)cc2)cc1 [M1i-124d1],Phosphorylation of IKKα/β (phospho-IKK/total IKK),leads to inhibition

# Source: patent US20240124410A1, “SMALL MOLECULES AND THEIR USE AS MALT1 INHIBITORS” (University of Pittsburgh - Of the Commonwealth System of …, priority 2021, published 2024)
